Among the test systems are A498 renal; HCT-116 colon; HCT-15 colon; IGROV1 ovarian; KM12 colon; MCF7 breast; SK-MEL-2 melanoma; SN12C renal; SW-620 colon; UACC-62 melanoma.
Holding throughout (test): growth of human tumour cells (NCI), 48 h

Molecules are shown by their SMILES.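 Values below derive from 48-hour exposures of cells grown in 96-well plates, with endpoints linearly interpolated between the two concentrations bracketing the appropriate inhibition level. Abbreviation: GI50, concentration required for 50% inhibition of growth. TGI denotes the concentration required for complete inhibition of growth.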 Where only a bound is given, the exact number is not on record here.

In the case of `CCc1nc(N)nc(N)c1-c1ccc2nnn(O)c2c1`, the TGI in the assay with A498 renal, in the assay with HCT-116 colon, in the assay on HCT-15 colon, with IGROV1 ovarian, in the assay with KM12 colon and in the assay with MCF7 breast was above 100 µM each time. Moreover, the TGI in the assay with SK-MEL-2 melanoma, with SN12C renal, with SW-620 colon and in the assay with UACC-62 melanoma was above 100 µM throughout.
On to `COc1ccc(Nc2cc(C)nc(NCc3ccccc3)n2)cc1`, for which the GI50 with A498 renal is 1.83 µM; in the assay on HCT-116 colon, 2.49 µM; with HCT-15 colon it was 2.8 µM; in the assay with IGROV1 ovarian it was 6.67 µM; in the assay with KM12 colon, 6.2 µM; in the assay with MCF7 breast, 3.51 µM. Besides, the GI50 is 6.34 µM in the assay on SK-MEL-2 melanoma, 5.28 µM in the assay with SN12C renal, 4.2 µM in the assay on SW-620 colon and 2.84 µM in the assay on UACC-62 melanoma. Also, the TGI in the assay on A498 renal was 13.6 µM; in the assay on HCT-116 colon it was 13 µM; in the assay on HCT-15 colon, 11.9 µM; with IGROV1 ovarian it was 23.4 µM; in the assay on KM12 colon, 21.9 µM; in the assay with MCF7 breast, 18.9 µM. Further, the TGI in the assay on SK-MEL-2 melanoma was found to be 23.8 µM; in the assay on SN12C renal, 20.4 µM; in the assay on SW-620 colon, 20 µM; in the assay on UACC-62 melanoma, 14.4 µM.
Turning to `Cc1nc(-c2nc(-c3ccc(OC(F)(F)F)cc3)no2)nn1Cc1cccc(N2CCC(S(C)(=O)=O)CC2)c1`, the GI50 in the assay on A498 renal is below 0.0198 µM; in the assay with HCT-116 colon, below 0.01 µM; in the assay on HCT-15 colon, above 21.7 µM; with IGROV1 ovarian it was above 26.5 µM; with KM12 colon, above 52.6 µM; in the assay with MCF7 breast, 0.0136 µM. The GI50 in the assay on SK-MEL-2 melanoma was above 35.1 µM; in the assay with SN12C renal it was above 31.1 µM; in the assay on SW-620 colon, above 46.9 µM; in the assay on UACC-62 melanoma, 3.51 µM. For the same compound, the TGI is 17.1 µM with A498 renal; above 100 µM with HCT-116 colon; above 100 µM in the assay with HCT-15 colon; above 100 µM in the assay on IGROV1 ovarian; above 100 µM in the assay with KM12 colon; 48.6 µM in the assay with MCF7 breast. Moreover, the TGI in the assay on SK-MEL-2 melanoma is above 86.5 µM; with SN12C renal, above 100 µM; with SW-620 colon, above 100 µM; in the assay on UACC-62 melanoma, above 100 µM.
Consider `Cc1cc(O)cc(C)c1/C=C/c1cncc(C(N)=O)c1`, for which the GI50 with A498 renal is 1.65 µM; with HCT-116 colon it was 1.34 µM; in the assay with HCT-15 colon it was 1.54 µM; with IGROV1 ovarian, 2.18 µM; with KM12 colon it was 1.25 µM; with MCF7 breast, 1.2 µM. The GI50 with SK-MEL-2 melanoma was 1.25 µM; in the assay on SN12C renal it was 2.92 µM; in the assay on SW-620 colon, 1.4 µM; with UACC-62 melanoma it was 1.36 µM. In addition, the TGI is 17.4 µM in the assay on A498 renal; above 25 µM in the assay on HCT-116 colon; above 25 µM in the assay on HCT-15 colon; above 25 µM in the assay on IGROV1 ovarian; above 25 µM with KM12 colon; above 25 µM with MCF7 breast. Further, the TGI with SK-MEL-2 melanoma is 14 µM; in the assay with SN12C renal, above 25 µM; in the assay on SW-620 colon it was above 25 µM; in the assay with UACC-62 melanoma, 23.1 µM.
For the compound `CC(N)(/C=C/c1ccccc1)C(=O)O` (centres undefined), the TGI in the assay on A498 renal, in the assay with HCT-116 colon, with HCT-15 colon, in the assay with IGROV1 ovarian, in the assay with KM12 colon and with MCF7 breast was above 100 µM in each case. Besides, the TGI in the assay on SK-MEL-2 melanoma, in the assay with SN12C renal, with SW-620 colon and in the assay with UACC-62 melanoma was above 100 µM each time.
With `O=[N+]([O-])c1ccc(C2CC(c3ccccc3)=Nc3ccccc3S2)cc1` (centres undefined), the GI50 with A498 renal is 59.8 µM; with HCT-116 colon, 1.98 µM; with HCT-15 colon, 8.03 µM; with IGROV1 ovarian it was 13.3 µM; in the assay with KM12 colon it was 6.13 µM; in the assay on MCF7 breast, 1.81 µM. The GI50 in the assay on SK-MEL-2 melanoma was above 100 µM; with SN12C renal, above 100 µM; in the assay with SW-620 colon, 2.75 µM; in the assay with UACC-62 melanoma it was above 100 µM. Also, the TGI in the assay with A498 renal is above 100 µM; in the assay with HCT-116 colon it was 4.11 µM; in the assay with HCT-15 colon it was above 100 µM; with IGROV1 ovarian it was above 100 µM; in the assay with KM12 colon, 97.5 µM; with MCF7 breast it was 6.72 µM. For the same compound, the TGI is above 100 µM in the assay with SK-MEL-2 melanoma, above 100 µM in the assay with SN12C renal, 11.1 µM with SW-620 colon and above 100 µM with UACC-62 melanoma.
Take `CCN1C(=O)N(CC)C2C1NN=c1s/c(=C\c3ccco3)c(=O)n12` (centres undefined): the GI50 with A498 renal is 0.39 µM; in the assay on HCT-116 colon it was 0.436 µM; with HCT-15 colon, 0.481 µM; with IGROV1 ovarian, 1.16 µM; in the assay on KM12 colon, 0.394 µM; in the assay with MCF7 breast, 0.361 µM. Further, the GI50 in the assay on SK-MEL-2 melanoma was 0.84 µM; in the assay on SN12C renal, 0.941 µM; in the assay on SW-620 colon, 0.439 µM; in the assay with UACC-62 melanoma, 0.446 µM. Also, the TGI with HCT-116 colon, in the assay with HCT-15 colon, in the assay with IGROV1 ovarian, in the assay with KM12 colon, in the assay on MCF7 breast and in the assay with SK-MEL-2 melanoma was above 100 µM each time. The TGI in the assay with SN12C renal, in the assay on SW-620 colon and in the assay with UACC-62 melanoma was above 100 µM each time.
Take `CC/C(=C(/c1ccc(O)cc1)c1ccc(OCCN)cc1)c1ccccc1`: the GI50 is 2.49 µM with A498 renal; 1.91 µM in the assay on HCT-116 colon; 1.91 µM in the assay on HCT-15 colon; 4.62 µM with IGROV1 ovarian; 1.97 µM in the assay with KM12 colon; below 0.0233 µM in the assay on MCF7 breast. Besides, the GI50 is 3.6 µM in the assay with SK-MEL-2 melanoma, 3.02 µM in the assay with SN12C renal, 1.87 µM in the assay on SW-620 colon and 2.44 µM in the assay on UACC-62 melanoma. Moreover, the TGI in the assay on A498 renal came to 16.8 µM; with HCT-116 colon, 4.08 µM; with HCT-15 colon it was 4.06 µM; with IGROV1 ovarian it was 15.5 µM; in the assay with KM12 colon, 3.9 µM; in the assay on MCF7 breast it was 3.99 µM. In addition, the TGI in the assay with SK-MEL-2 melanoma was determined as 8.55 µM; in the assay with SN12C renal it was 9.67 µM; in the assay with SW-620 colon, 3.91 µM; in the assay on UACC-62 melanoma, 7.43 µM.
As to `NC(N)=NC(N)=Nc1cnccn1`, the TGI in the assay on A498 renal, in the assay on HCT-116 colon, in the assay on HCT-15 colon, with IGROV1 ovarian, in the assay on KM12 colon and with MCF7 breast was above 100 µM in each case. Besides, the TGI in the assay on SK-MEL-2 melanoma, in the assay with SN12C renal, with SW-620 colon and in the assay on UACC-62 melanoma was above 100 µM each time.

Values taken from PubChem BioAssay (NCI).
